Test results from ChEMBL document CHEMBL2203176, “Structure-based bioisosterism design, synthesis and biological evaluation of novel 1,2,4-triazin-6-ylthioacetamides as potent HIV-1 NNRTIs” (Bioorg Med Chem Lett, 2012).

Experiments:
[1] = Selectivity index, ratio of CC50 for human MT4 cells to EC50 for HIV1 3B; assay type: toxicity, cell-based; conditions: read-out: Ratio CC50/EC50
[2] = Cytotoxicity against human MT4 cells by MTT assay; assay type: cell-based
[3] = Selectivity index, ratio of CC50 for human MT4 cells to EC50 for HIV2 ROD; assay type: toxicity, cell-based; conditions: read-out: Ratio CC50/EC50
[4] = Selectivity index, ratio of CC50 for human MT4 cells to EC50 for HIV1 RES056 harboring reverse transcriptase K103N/Y181C mutant; assay type: toxicity, cell-based; conditions: read-out: Ratio CC50/EC50
[5] = system: Human immunodeficiency virus 1; assay: Antiviral activity against HIV1 3B infected in human MT4 cells assessed as inhibition of virus-induced cytopathicity by MTT assay; assay type: functional, organism-based; conditions: Human immunodeficiency virus 1, 3B
[6] = molecular target: Human immunodeficiency virus type 1 reverse transcriptase (Human immunodeficiency virus 1, UniProt Q72547); assay: Inhibition of HIV1 reverse transcriptase assessed as biotin-dUTP incorporation into enzyme using […] as template primer by colorimetric analysis
[7] = system: Human immunodeficiency virus 2; assay: Antiviral activity against HIV2 ROD infected in human MT4 cells assessed as inhibition of virus-induced cytopathicity by MTT assay; assay type: functional, organism-based; conditions: Human immunodeficiency virus 2, ISOLATE ROD
[8] = system: Human immunodeficiency virus 1; assay: Antiviral activity against HIV1 RES056 harboring reverse transcriptase K103N/Y181C mutant infected in human MT4 cells assessed as inhibition of virus-induced cytopathicity by MTT assay; assay type: functional, organism-based; conditions: Human immunodeficiency virus 1, RES056, MT4
[9] = system: Human immunodeficiency virus 1; assay: Ratio of delavirdine EC50 to compound EC50 for HIV1 3B; assay type: functional
[10] = system: Human immunodeficiency virus 1; assay: Ratio of dideoxycytidine EC50 to compound EC50 for HIV1 3B; assay type: functional
[11] = system: Human immunodeficiency virus 1; assay: Ratio of nevirapine EC50 to compound EC50 for HIV1 3B; assay type: functional

## O=C(CSc1nncnc1-c1ccccc1Cl)Nc1ccccc1[N+](=O)[O-]
[1]
  selectivity ratio: 2160
[2]
  CC50: 63 µM
[3]
  selectivity ratio: < 1
[4]
  selectivity ratio: ≤ 6
[5]
  EC50: 0.023 µM
[6]
  IC50: 6.5 µM
[7]
  EC50: > 63 µM
[8]
  EC50: ≥ 11 µM

## NS(=O)(=O)c1ccc(NC(=O)CSc2nncnc2-c2cccc3ccccc23)c(Br)c1
[1]
  selectivity ratio: 1290
[9]
  Ratio EC50: 2
[10]
  Ratio EC50: 78
[2]
  CC50: 23 µM
[3]
  selectivity ratio: < 1
[4]
  selectivity ratio: 7
[5]
  EC50: 0.018 µM
[7]
  EC50: > 23 µM
[8]
  EC50: 3.3 µM
[11]
  Ratio EC50: 11

## Cc1ccc(NC(=O)CSc2nncnc2-c2ccccc2Cl)c([N+](=O)[O-])c1
[1]
  selectivity ratio: 3330
[2]
  CC50: 158 µM
[3]
  selectivity ratio: < 1
[4]
  selectivity ratio: ≤ 1
[5]
  EC50: 0.048 µM
[6]
  IC50: 18 µM
[7]
  EC50: > 158 µM
[8]
  EC50: ≥ 22 µM
